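Protocol summary: plate cells (96-well), add compound at 5 concentrations, incubate 48 h, interpolate endpoints linearly. Here, GI50 denotes the concentration required for 50% inhibition of growth.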 Calls of active or inactive are those of the source. Cut-off read from the data, not from the text of the source: active = GI50 up to about 1.1 µM and inactive = higher.
Legend:
Assay in all cases: NCI anticancer screen, dose series, 48 h
HCT-15 = tested on: HCT-15
DU-145 = tested on: DU-145
SNB-75 = tested on: SNB-75
TK-10 = tested on: TK-10
M14 = tested on: M14
SF-295 = tested on: SF-295
NCI-H460 = tested on: NCI-H460
MDA-MB-231 = tested on: MDA-MB-231
PC-3 = tested on: PC-3
SF-268 = tested on: SF-268
OVCAR-5 = tested on: OVCAR-5
Hs-578T = tested on: Hs-578T
SK-MEL-28 = tested on: SK-MEL-28
SNB-19 = tested on: SNB-19
EKVX = tested on: EKVX
LOX IMVI = tested on: LOX IMVI
KM12 = tested on: KM12
HOP-92 = tested on: HOP-92
COLO 205 = tested on: COLO 205
HCT-116 = tested on: HCT-116

| SMILES | GI50 (HCT-15) [µM] | GI50 (DU-145) | GI50 (SNB-75) | GI50 (TK-10) | GI50 (M14) | GI50 (SF-295) | GI50 (NCI-H460) | GI50 (MDA-MB-231) | GI50 (PC-3) | GI50 (SF-268) | GI50 (OVCAR-5) | GI50 (Hs-578T) | GI50 (SK-MEL-28) | GI50 (SNB-19) | GI50 (EKVX) | GI50 (LOX IMVI) | GI50 (KM12) | GI50 (HOP-92) | GI50 (COLO 205) | GI50 (HCT-116) |
| --- | --- | --- | --- | --- | --- | --- | --- | --- | --- | --- | --- | --- | --- | --- | --- | --- | --- | --- | --- | --- |
| CC(=O)NCC1OC2COC(c3ccccc3)OC2C2N=C(c3ccccc3)OC12 (stereo not given) | 43.4 | > 100 µM (inactive) | 38.2 µM (inactive) | 58.2 µM (inactive) | 60.8 µM (inactive) | 35.3 µM (inactive) | 60.7 µM (inactive) | > 100 µM (inactive) | 24.9 µM (inactive) | 81.1 µM (inactive) | > 100 µM (inactive) | 51.5 µM (inactive) | 59.6 µM (inactive) | > 100 µM (inactive) | 38 µM (inactive) | 79.6 µM (inactive) | 40.4 µM (inactive) | 61.1 µM (inactive) | 30.7 µM (inactive) | 38.4 µM (inactive) |
| O=C(NC12CC3CC(CC(C3)C1)C2)n1cnc2cncnc21 | 27.7 | 25.6 µM (inactive) | 44.5 µM (inactive) | 30.2 µM (inactive) | 54.7 µM (inactive) | 21.6 µM (inactive) | 32.3 µM (inactive) | 70 µM (inactive) | 25.8 µM (inactive) | 53.5 µM (inactive) | 34.3 µM (inactive) | 54.6 µM (inactive) | > 100 µM (inactive) | 93.3 µM (inactive) | 37.6 µM (inactive) | 25.8 µM (inactive) | 30.8 µM (inactive) | 28.2 µM (inactive) | 20.6 µM (inactive) | 32.7 µM (inactive) |
| CC(C)=NOC(=O)CNC(=O)C(Cc1ccccc1)NC(=O)C(C)NC(=O)OC(C)(C)C (stereo not given) | > 100 | > 100 µM (inactive) | > 100 µM (inactive) | > 100 µM (inactive) | > 100 µM (inactive) | > 100 µM (inactive) | > 100 µM (inactive) | > 100 µM (inactive) | > 100 µM (inactive) | > 100 µM (inactive) | > 100 µM (inactive) | > 100 µM (inactive) | > 100 µM (inactive) | > 100 µM (inactive) | > 100 µM (inactive) | > 100 µM (inactive) | > 100 µM (inactive) | > 100 µM (inactive) | > 100 µM (inactive) | > 100 µM (inactive) |
| CCOC(=O)c1c(SC(=O)/C=C/c2ccccc2)n(-c2ccccc2)c(=S)n(-c2ccccc2)c1=O | > 100 | > 100 µM (inactive) | > 100 µM (inactive) | > 100 µM (inactive) | > 100 µM (inactive) | > 100 µM (inactive) | > 100 µM (inactive) | > 100 µM (inactive) | > 100 µM (inactive) | > 100 µM (inactive) | > 100 µM (inactive) | > 100 µM (inactive) | > 100 µM (inactive) | > 100 µM (inactive) | > 100 µM (inactive) | > 100 µM (inactive) | > 100 µM (inactive) | > 100 µM (inactive) | > 100 µM (inactive) | > 100 µM (inactive) |

— ChEMBL document CHEMBL1201862, “PubChem BioAssay data set” (2004)
